Experimental findings from patent US8779156B2, “Analogues for the treatment or prevention of flavivirus infections” (Vertex Pharmaceuticals Incorporated, priority 2010, dated 2014) are described below.

The test system of assay [1] is sub-genomic HCV replicon of genotype 1a (cell line W11.8). In words: Activity determination using the ELISA and the sub-genomic replicon 1a cell line (NS5A protein level). Format: cell-based. As to conditions: Hepatitis C virus. An excerpt:
Activity Determination Using the ELISA and the Sub-Genomic Replicon 1a Cell Line
The cell line W11.8 containing the sub-genomic HCV replicon of genotype 1a is used to determine the potency of the drugs. The RNA replication in presence of different drug concentrations is indirectly measured in this cell line by the level of NS5A protein content upon drug treatment for four days. It is shown that the level of the NS5A protein correlates well with the level of HCV RNA in the replicon cell line. Cells are split twice a week in order to keep the confluence state below 85% of the culture flask surface area. The culture media used for cell passaging consists of DMEM-10% foetal bovine serum with 100 UI/mL penicillin, 100 μg/mL streptomycin, 2 mM glutamine, 1 mM sodium pyruvate, non-essential amino acids (1×) and 600 μg/mL of G418 final concentrations. Monolayer of the W11.8 cells is trypsinized and cells are counted. Cells are diluted at 50,000 cells/mL with complete DMEM without G418, then approximately 5,000 viable cells (100 μL) are plated per well in a white opaque 96-well microtiter plate. After an incubation period of 2-4 hours at 37° C. in a 5% CO2 incubator, compounds are added at various concentrations. Drugs are resuspended in DMSO at a stock concentration of 10 mM. Then, drugs are serially diluted at twice the final concentration in the same medium. One volume (100 μL) of each drug dilution is then added to each well that contains cells. A control compound is used as an internal standard for each plate assay. Sixteen wells are used as control (0% inhibition) without drug. […] Values from 100% inhibited wells were averaged and used as the background value. Cells are further incubated for four days at 37° C. in a 5% CO2 incubator. Following the incubation time of four days, the media is removed and wells are washed once with 150 μL of PBS at room temperature for five minutes. Cells are then fixed for five minutes using 150 μL per well of cold (−20° C.) fixative solution (50% methanol/50% acetone mix). Cells are then washed twice with 150 μL of PBS (phosphate buffered saline) per well, following the addition of 150 μL of blocking solution, cells are incubated for one hour at 37° C. to block non-specific sites. The blocking solution is removed and cells are washed twice with 150 μL of PBS per well and once with 150 μL of PBSTS solution (PBS/0.1% Triton X-100/0.02% SDS) per well. […] Then, substrate solution (100 μl, SuperSignal ELISA Pico Chemiluminescent Substrate, Fisher Cat. No. 37069) is added in each well and plates are incubated 60 minutes at room temperature prior to reading the luminescence (relative light units) on the Analyst HT plate reader. The percentage of inhibition at each drug concentration tested (in duplicate) is calculated.

Assay [2] concerns HCV (1b) replicon, Huh-ET cells. Briefly: Cell-based luciferase reporter HCV (1b) RNA replication assay. To be noted: Hepatitis C virus; for EC50: 96 h, HCV 1b replicon, luciferase, 4 days incubation, read-out: EC50_1b; for IC50: sub-genomic replicon 1b cell line. An excerpt:
Cell-Based Luciferase Reporter HCV (Ib) RNA Replication Assay Cell Culture
Replicon cell lines Huh-5.2 are derived from the Huh-7 hepatocarcinoma cell line are maintained in culture as generally described in Krieger, N; Lohmann, V; Bartenschlager, R. Enhancement of hepatitis C virus RNA replication by cell culture-adaptive mutations. J. Virol. 2001, 75, 4614-4624. The Huh-5.2 cells contain the highly cell culture-adapted replicon I389luc-ubi-neo/NS3-375.1 construct that carries, in addition to the neomycin gene, an integrated copy to the firefly luciferase gene (Krieger, N; Lohmann, V; Bartenschlager, R. Enhancement of hepatitis C virus RNA replication by cell culture-adaptive mutations. J. Virol. 2001, 75, 4614-4624). This cell line allows measurement of HCV RNA replication and translation by measuring luciferase activity. It has been previously shown that the luciferase activity tightly follows the replicon RNA level in these cells (Krieger, N; Lohmann, V; Bartenschlager, R. Enhancement of hepatitis C virus RNA replication by cell culture-adaptive mutations. J. Virol. 2001, 75, 4614-4624). The Huh-ET cell line has the same features as those mentioned for Huh-5.2 cell line, except that ET cells are more robust and contain an adaptative mutation in the HCV NS4B gene instead of NS5A. Both cell lines are maintained in cultures at a sub-confluent level (<85%) as the level of replicon RNA is highest in actively proliferating cells. The culture media used for cell passaging consist of DMEM (Gibco BRL Laboratories, Mississauga, ON, Canada) supplemented with 10% foetal bovine serum with 1% penicilin/streptomycin, 1% glutamine, 1% sodium pyruvate, 1% non-essential amino acids, and 180 μg/ml of G418 final concentration. Cells are incubated at 37° C., in an atmosphere of 5% CO2 and passaged twice a week to maintain sub-confluence.
Approximately 3000 viable Huh-ET cells (100 μl) are plated per well in a white opaque 96-well microtiter plate. The cell culture media used for the assay is the same as described above except that it contains no G418 and no phenol red. After an incubation period of 3-4 hours at 37° C. in a 5% CO2 incubator, compounds (100 μl) are added at various concentrations. Cells are then further incubated for 4 days at 37° C. in a 5% CO2 incubator. Thereafter, the culture media is removed and cells are lysed by the addition of 95 μL of the luciferase buffer (luciferin substrate in buffered detergent). Cell lysates are incubated at room temperature and protected from direct light for at least 10 minutes. Plates are read for luciferase counts using a luminometer (Wallac MicroBeta Trilux, Perkin Elmer™, MA, USA).
Curves are fitted to data points using nonlinear regression analysis, and IC50s are interpolated from the resulting curve using GraphPad Prism software, version 2.0 (GraphPad Software Inc., San Diego, Calif., USA).

Structures are written as SMILES. Bounds are passed on as bounds.

`COC(=O)N[C@H](C(=O)N1C[C@@H](C)C[C@H]1c1nc(-c2ccc(-c3ccc(-c4ccc5nc([C@@H]6C[C@H](C)CN6C(=O)[C@@H](NC(=O)OC)C(C)C)[nH]c5c4)cc3)cc2)c[nH]1)C(C)C` [Compound 5, ((S)-1-{(2S,4S)-2-[5-(4′-{2-[(2S,4S)-1-((S)-2-Methoxycarbonylamino-3-methyl-butyryl)-4-methyl-pyrrolidin-2-yl]-1H-imidazol-4-yl}-biphenyl-4-yl)-1H-benzoimidazol-2-yl]-4-methyl-pyrrolidine-1-carbonyl}-2-methyl-propyl)-carbamic acid methyl ester]: in assay [1], half-maximal inhibition (IC50) was put at 4.1 pM. Besides, in assay [2], the EC50 was ≤ 5 nM and the IC50 – broadly, the concentration at which inhibition is half-maximal – worked out at 5 pM.
As to `COC(=O)NC(C(=O)N1[C@@H](C)CC[C@H]1c1nc2cc(-c3ccc(-c4ccc(-c5cnc([C@@H]6CC[C@H](C)N6C(=O)[C@@H](NC(=O)OC)C(C)C)[nH]5)cc4)cc3)ccc2[nH]1)C(C)C` (stereo partly drawn) [Compound 13, Methyl N-[(1S)-1-[(2S,5S)-2-[4-[4-[4-[2-[(2S,5S)-1-[2-(methoxycarbonylamino)-3-methyl-butanoyl]-5-methyl-pyrrolidin-2-yl]-1H-benzimidazol-5-yl]phenyl]phenyl]-1H-imidazol-2-yl]-5-methyl-pyrrolidine-1-carbonyl]-2-methyl-propyl]carbamate], the IC50 in assay [1] was 36 pM; in assay [2], 2.6 pM. The EC50 in assay [2] is ≤ 5 nM.
Consider `COC(=O)N[C@H](C(=O)N1C[C@@H](C)C[C@H]1c1nc(-c2ccc(-c3ccc(-c4ccc5[nH]c([C@@H]6CC[C@H](C)N6C(=O)[C@@H](NC(=O)OC)C(C)C)nc5c4)cc3)cc2)c[nH]1)C(C)C` [Compound 18], for which the 50% inhibitory concentration (IC50) in assay [1] and in assay [2] was 8.5 pM each time. The EC50 in assay [2] is ≤ 5 nM.
Compound `COC(=O)N[C@H](C(=O)N1CCC[C@H]1c1ncc(-c2ccc(-c3ccc(-c4ccc5[nH]c([C@@H]6CCCN6C(=O)[C@@H](NC(=O)OC)C(C)C)nc5c4)cc3)cc2)[nH]1)C(C)C` [Compound 4, ((S)-1-{(S)-2-[5-(4′-{2-[(S)-1-((S)-2-Methoxycarbonylamino-3-methyl-butyryl)-pyrrolidin-2-yl]-3H-benzoimidazol-5-yl}-biphenyl-4-yl)-1H-imidazol-2-yl]-pyrrolidine-1-carbonyl}-2-methyl-propyl)-carbamic acid methyl ester] returned a half-maximal inhibitory concentration (IC50) in assay [1] of 140 pM. In assay [2], the EC50 was ≤ 5 nM and the 50% inhibitory concentration (IC50) was 13 pM.
